Key:
Assay in all cases: relative viability (nuclei count vs DMSO), 5 days (fraction); higher = more cells survive
[1] = compound: Cc1ccc2nc(NCCN)c3ncc(C)n3c2c1 + COc1cccc2cc(-c3nc([C@H]4CC[C@H](C(=O)O)CC4)n4ncnc(N)c34)[nH]c12 [OSI-027] (partner 0.5 µM)
Procedure, shortened: (§1)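 Five library-drug doses in √10 steps were combined with a fixed anchor-drug dose, or a single drug was given alone, by pin tool to lung cancer cell lines in 1536-well plates the day after seeding. Nuclei were stained and counted after 5 days. Relative viability is the nuclei count in treated wells over that in vehicle wells, taken as the median of duplicate plates.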

Salubrinal + Alpelisib = compound: O=C(/C=C/c1ccccc1)NC(NC(=S)Nc1cccc2cccnc12)C(Cl)(Cl)Cl [Salubrinal] + Cc1nc(NC(=O)N2CCC[C@H]2C(N)=O)sc1-c1ccnc(C(C)(C)C(F)(F)F)c1 [Alpelisib] (partner 2 µM)
Procedure, shortened: as §1

[2] = compound: Cc1ccc2nc(NCCN)c3ncc(C)n3c2c1 + NC(=O)Nc1cc(-c2cccc(F)c2)sc1C(=O)N[C@H]1CCCNC1 [AZD7762] (partner 0.2 µM)
Procedure, shortened: as §1

[3] = compound: Cc1ccc2nc(NCCN)c3ncc(C)n3c2c1 + Cc1cc(Nc2cc(N3CCN(C)CC3)nc(Sc3ccc(NC(=O)C4CC4)cc3)n2)n[nH]1 [Tozasertib] (partner 0.1 µM)
Procedure, shortened: as §1

Cell Line	relative viability ([1]; first compound 0.04 µM)	relative viability ([1]; first compound 0.1265 µM)	relative viability ([1]; first compound 0.4 µM)	relative viability ([1]; first compound 1.265 µM)	relative viability ([1]; first compound 4 µM)	relative viability (Salubrinal + Alpelisib; first compound 0.08 µM)	relative viability (Salubrinal + Alpelisib; first compound 0.253 µM)	relative viability (Salubrinal + Alpelisib; first compound 0.8 µM)	relative viability (Salubrinal + Alpelisib; first compound 2.53 µM)	relative viability (Salubrinal + Alpelisib; first compound 8 µM)	relative viability ([2]; first compound 0.04 µM)	relative viability ([2]; first compound 0.1265 µM)	relative viability ([2]; first compound 0.4 µM)	relative viability ([2]; first compound 1.265 µM)	relative viability ([2]; first compound 4 µM)	relative viability ([3]; first compound 0.04 µM)	relative viability ([3]; first compound 0.1265 µM)	relative viability ([3]; first compound 0.4 µM)	relative viability ([3]; first compound 1.265 µM)	relative viability ([3]; first compound 4 µM)
201T	0.863	0.586	0.761	0.805	0.64	1.07	0.999	1.05	1.02	1.01	0.639	0.569	0.66	0.598	0.618	0.985	0.976	0.908	0.971	0.913
A549						0.726	0.806	0.755	0.76	0.616										
A-427	0.499	0.408	0.488	0.49	0.451	1.06	1.16	1.17	1.16	1.15	0.816	0.748	0.748	0.721	0.723	0.229	0.21	0.185	0.212	0.196
ABC-1	0.595	0.559	0.564	0.439	0.484	1	0.952	1.2	1	1.12	0.765	0.999	0.798	0.741	0.648	0.171	0.15	0.171	0.187	0.22
BEN	0.316	0.291	0.328	0.276	0.324	1.23	0.82	1.3	1	1.03	0.719	0.738	0.538	0.68	0.783	0.501	0.436	0.498	0.469	0.559
CAL-12T	0.798	0.572	0.824	0.76	0.52	1.6	0.712	1.31	1.17	1.02	0.657	0.649	0.557	0.576	0.481	0.288	0.353	0.376	0.291	0.269
COR-L23	0.911	0.764	0.777	0.729	0.61	0.908	0.792	0.875	0.965	0.631						0.202	0.243	0.218	0.135	0.173
COR-L 105	0.79	0.753	0.666	0.691	0.723	1.01	0.906	1.04	1.06	0.831						0.374	0.355	0.294	0.353	0.302
Calu-6						0.94	0.936	1.07	1.04	0.942										
ChaGo-K-1	0.601	0.586	0.601	0.475	0.419						0.946	0.901	0.874	0.808	0.921	0.258	0.253	0.253	0.236	0.238
EBC-1						0.869	0.952	0.976	0.811	0.736										
EKVX	0.754	0.688	0.658	0.71	0.617	1.14	0.729	1.01	0.887	0.88	0.723	0.704	0.693	0.682	0.525	0.433	0.359	0.366	0.349	0.407
EMC-BAC-2	0.387	0.381	0.344	0.394	0.377	0.802	0.709	0.786	0.82	0.702	1.2	1.11	1.04	1.06	1.02	0.297	0.282	0.313	0.265	0.288
EPLC-272H	0.366	0.296	0.32	0.346	0.317	1.01	0.798	1.07	0.996	0.787	0.228	0.404	0.214	0.177	0.166	0.249	0.33	0.348	0.237	0.251
H3255	0.663	0.588	0.592	0.522	0.541	0.913	0.676	0.762	0.693	0.769	0.923	0.963	0.829	0.76	0.746	0.703	0.55	0.629	0.477	0.455
HARA	0.488	0.505	0.233	0.459	0.553	0.948	0.931	0.848	0.937	0.78	0.401	0.33	0.256	0.274	0.337	0.77	0.156	0.126	0.107	0.11
HCC-15	0.708	0.807	0.544	0.659	0.581	0.988	0.789	0.994	0.94	0.945	1.23	1.27	1.19	1.17	1.18	0.382	0.412	0.439	0.345	0.247
HCC-44	0.49	0.451	0.448	0.631	0.384	0.904	0.758	0.806	0.84	0.671	0.988	1.05	0.933	0.992	1.02	1.06	0.896	1.04	0.753	0.645
HCC-78	0.417	0.421	0.371	0.341	0.337	0.345	0.377	0.349	0.307	0.316	0.828	0.72	0.616	0.752	0.586	0.4	0.375	0.291	0.403	0.388
